Test results: patent US12233161B1, “Lipids and lipid nanoparticle formulations” (LONGUIDE BIOPHARMA CORPORATION, priority 2024, dated 2025)

Columns and labels:
mice = assay: In vivo delivery of FLuc-mRNA lipid nanoparticles in mice, in vivo imaging (IVIS)
Method in brief: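 Mice (n=3) received about 75 μL FLuc-mRNA LNP per mouse intramuscularly (rectus femoris), intravenously (tail vein), intraperitoneally or subcutaneously (back). After injection, D-luciferin (200 μL, 15 mg/mL) was given i.p. 10-15 min before IVIS imaging.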

[1] = Particle size and PDI of nucleic acid lipid nanoparticle preparations by dynamic light scattering; assay type: physicochemical
Method in brief: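 LNP solution (about 0.04 mg/mL mRNA before dilution) was diluted in ultrapure water and mixed by gentle pipetting. Particle size and PDI were then measured by dynamic light scattering.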

[2] = DMG-PEG2000:DSPC:Chol:Lipid 1.00:11.50:22.50:65.00, N/P 65, IV, liver
[3] = DMG-PEG2000:DSPC:Chol:Lipid 1.00:11.50:22.50:65.00, N/P 65, IV, lung
[4] = DMG-PEG2000:DSPC:Chol:Lipid 1.00:11.50:22.50:65.00, N/P 65, IV, spleen
[5] = DMG-PEG2000:DSPC:Chol:Lipid 2.50:11.50:51.00:35.00, N/P 50, IV, liver
[6] = DMG-PEG2000:DSPC:Chol:Lipid 2.50:11.50:51.00:35.00, N/P 50, IV, lung
[7] = DMG-PEG2000:DSPC:Chol:Lipid 2.50:11.50:51.00:35.00, N/P 50, IV, spleen
[8] = DMG-PEG2000:DSPC:Chol:Lipid 1.00:11.50:22.50:65.00, N/P 65, mRNA LNP
[9] = DMG-PEG2000:DSPC:Chol:Lipid 1.00:16.00:48.00:35.00, N/P 35, mRNA LNP
[10] = DMG-PEG2000:DSPC:Chol:Lipid 1.00:16.00:63.00:20.00, N/P 35, mRNA LNP
[11] = DMG-PEG2000:DSPC:Chol:Lipid 2.50:11.50:51.00:35.00, N/P 50, mRNA LNP
[12] = DMG-PEG2000:DSPC:Chol:compound 1.00:10.00:33.00:56.00, N/P 42
[13] = DMG-PEG2000:DSPC:Chol:compound 1.40:11.15:38.95:48.50, N/P 40
[14] = DMG-PEG2000:DSPC:Chol:compound 1.40:11.15:38.95:48.50, N/P 20
[15] = IM, DMG-PEG2000:DSPC:Chol:compound 1.40:11.15:38.95:48.50, N/P 30, Fluc-mRNA
[16] = IV, organ not given, DMG-PEG2000:DSPC:Chol:compound 1.40:11.15:38.95:48.50, N/P 30, Fluc-mRNA
[17] = DMG-PEG2000:DSPC:Chol:compound 1.40:11.15:38.95:48.50, N/P 30
[18] = DMG-PEG2000:DSPC:Chol:Lipid 1.40:11.15:38.95:48.50, N/P 30, mRNA LNP

In the case of `CCCCCCCCCCNC(=O)C(O)CN(CCCN(C)CCCN(CC(O)C(=O)NCCCCCCCCCC)CC(O)C(=O)NCCCCCCCCCC)CC(O)C(=O)NCCCCCCCCCC` (stereo not shown) [Compound L0265], the IVIS (mice; DMG-PEG2000:DSPC:Chol:Lipid 1.00:11.50:22.50:65.00, N/P 65, IV, body) is reported as 1.59 × 10^8, the “% of organ targeting” value (mice; [2]) is reported as 0.76% and the IVIS (mice; [2]) is reported as 7.76 × 10^6. The “% of organ targeting” value (mice; [3]) was 97.75%, the IVIS (mice; [3]) was 1.00 × 10^9 and the “% of organ targeting” value (mice; [4]) was 1.50%. The IVIS (mice; [4]) was 1.53 × 10^7, the IVIS (mice; DMG-PEG2000:DSPC:Chol:Lipid 1.00:16.00:48.00:35.00, N/P 35, IM, whole body scan) was 6.15 × 10^7 and the IVIS (mice; DMG-PEG2000:DSPC:Chol:Lipid 1.00:16.00:63.00:20.00, N/P 35, IM, whole body scan) was 6.47 × 10^6. The IVIS (mice; DMG-PEG2000:DSPC:Chol:Lipid 2.50:11.50:51.00:35.00, N/P 50, IV, body) was 4.45 × 10^7, the “% of organ targeting” value (mice; [5]) was 21.35% and the IVIS (mice; [5]) was 6.87 × 10^6. For the same compound, the “% of organ targeting” value (mice; [6]) was 20.23%, the IVIS (mice; [6]) was 6.51 × 10^6 and the “% of organ targeting” value (mice; [7]) was 58.42%. The IVIS (mice; [7]) was 1.88 × 10^7, the IVIS (mice; IV, body, DMG-PEG2000:DSPC:Chol:compound 1.00:10.00:33.00:56.00, N/P 42, Fluc-mRNA) was 2.04E+08 and the “% of organ targeting” value (mice; IV, liver, DMG-PEG2000:DSPC:Chol:compound 1.00:10.00:33.00:56.00, N/P 42) was 0.55%. For the same compound, the IVIS (mice; IV, liver, DMG-PEG2000:DSPC:Chol:compound 1.00:10.00:33.00:56.00, N/P 42, Fluc-mRNA) was 2.18E+06, the “% of organ targeting” value (mice; IV, lung, DMG-PEG2000:DSPC:Chol:compound 1.00:10.00:33.00:56.00, N/P 42) was 98.43% and the IVIS (mice; IV, lung, DMG-PEG2000:DSPC:Chol:compound 1.00:10.00:33.00:56.00, N/P 42, Fluc-mRNA) was 3.94E+08. The “% of organ targeting” value (mice; IV, spleen, DMG-PEG2000:DSPC:Chol:compound 1.00:10.00:33.00:56.00, N/P 42) was 1.03%, the IVIS (mice; IV, spleen, DMG-PEG2000:DSPC:Chol:compound 1.00:10.00:33.00:56.00, N/P 42, Fluc-mRNA) was 4.11E+06 and the “in vivo delivery efficiency as compared to the benchmark compound SM102” value (mice; certain formulations, Table 2) was “superior in vivo delivery efficiency”. For the same compound, the “tissue-targeting specificity (lung vs spleen depending on molar percentage of compound)” value (mice; certain formulations, Table 2) was “strong tissue-targeting specificity”, the PDI [1, 8] was 0.10 ± 0.02 and the Particle size [1, 8] was 87.42 ± 0.32 nm. It also gave a PDI [1, 9] of 0.11 ± 0.02, a Particle size [1, 9] of 115.10 ± 0.87 nm and a PDI [1, 10] of 0.11 ± 0.02. For the same compound, the Particle size [1, 10] was 135.03 ± 0.67 nm, the PDI [1, 11] was 0.12 ± 0.01 and the Particle size [1, 11] was 122.50 ± 1.15 nm. The PDI [1, 12] was 0.08 and the “Particle size (nm)” value [1, 12] was 101.60 nm.
With `CCCCCCCCCCCCNCC(O)CN(CCCNC(=O)CCN(CCCN(CCC(=O)NCCCN(CC(O)C(=O)NCCCCCCCCCCCC)CC(O)C(=O)NCCCCCCCCCCCC)CCC(=O)NCCCN(CC(O)C(=O)NCCCCCCCCCCCC)CC(O)C(=O)NCCCCCCCCCCCC)CCC(=O)NCCCN(CC(O)C(=O)NCCCCCCCCCCCC)CC(O)C(=O)NCCCCCCCCCCCC)CC(O)C(=O)NCCCCCCCCCCCC` (stereo not shown) [Compound L0328] the IVIS (mice; IM, DMG-PEG2000:DSPC:Chol:compound 1.40:11.15:38.95:48.50, N/P 40, Fluc-mRNA) was 9.40E+05, the IVIS (mice; IV, body, DMG-PEG2000:DSPC:Chol:compound 1.40:11.15:38.95:48.50, N/P 40, Fluc-mRNA) was 3.55E+07 and the “% of organ targeting” value (mice; IV, liver, DMG-PEG2000:DSPC:Chol:compound 1.40:11.15:38.95:48.50, N/P 40) was 51.92%. The IVIS (mice; IV, liver, DMG-PEG2000:DSPC:Chol:compound 1.40:11.15:38.95:48.50, N/P 40, Fluc-mRNA) was 5.62E+06, the “% of organ targeting” value (mice; IV, lung, DMG-PEG2000:DSPC:Chol:compound 1.40:11.15:38.95:48.50, N/P 40) was 1.56% and the IVIS (mice; IV, lung, DMG-PEG2000:DSPC:Chol:compound 1.40:11.15:38.95:48.50, N/P 40, Fluc-mRNA) was 1.69E+05. The “% of organ targeting” value (mice; IV, spleen, DMG-PEG2000:DSPC:Chol:compound 1.40:11.15:38.95:48.50, N/P 40) was 46.52%, the IVIS (mice; IV, spleen, DMG-PEG2000:DSPC:Chol:compound 1.40:11.15:38.95:48.50, N/P 40, Fluc-mRNA) was 5.04E+06 and the PDI [1, 13] was 0.11. The “Particle size (nm)” value [1, 13] was 150.47 nm.
Compound `CCCCCCCC/C=C\CCCCCCCCNC(=O)C(O)CN(C)CCN(C)CCN(C)CC(O)C(=O)NCCCCCCCC/C=C\CCCCCCCC` (stereo not shown) [Compound L0296] has an IVIS (mice; IM, DMG-PEG2000:DSPC:Chol:compound 1.40:11.15:38.95:48.50, N/P 20, Fluc-mRNA) of 2.80E+05, an IVIS (mice; IV, organ not given, DMG-PEG2000:DSPC:Chol:compound 1.40:11.15:38.95:48.50, N/P 20, Fluc-mRNA) of 2.97E+05 and a PDI [1, 14] of 0.16. The “Particle size (nm)” value [1, 14] was 81.09 nm.
`CCCCCCOCOCCCCCCOC(=O)C(O)CN(C)CCCN(C)CCCN(C)CC(O)C(=O)OCCCCCCOCOCCCCCC` (stereo not shown) [Compound L0331] gave an IVIS (mice; [15]) of 3.39E+06, an IVIS (mice; [16]) of 9.27E+05 and a PDI [1, 17] of 0.06. For the same compound, the “Particle size (nm)” value [1, 17] was 122.67 nm.
With `CCCCCCCCCCCCOC(=O)C(O)CN(C)CCN(C)CCN(C)CC(O)C(=O)OCCCCCCCCCCCC` (stereo not shown) [Compound L0276] the IVIS (mice; DMG-PEG2000:DSPC:Chol:Lipid 1.40:11.15:38.95:48.50, N/P 30, IM, whole body scan) was 1.81 × 10^6, the IVIS (mice; DMG-PEG2000:DSPC:Chol:Lipid 1.40:11.15:38.95:48.50, N/P 30, IV, body (whole body scan)) was 1.60 × 10^5 and the PDI [1, 18] was 0.23 ± 0.02. For the same compound, the Particle size [1, 18] was 98.58 ± 2.89 nm.
Work on `CCCCCCCCCCCCOC(=O)C(O)CN(C)CCCN(C)CCCN(C)CC(O)C(=O)OCCCCCCCCCCCC` (stereo not shown) [Compound L0310] yielded an IVIS (mice; [15]) of 1.53E+05, an IVIS (mice; [16]) of 2.77E+05 and a PDI [1, 17] of 0.22. For the same compound, the “Particle size (nm)” value [1, 17] was 190.63 nm.
